Data set [1] concerns CT2A cells and GSC272 cells. The data set can be described thus: T cell-mediated cytotoxicity assay (LDH release). It counts as cell-based, human and mouse. The conditions noted are these: TFPI2 recombinant protein 20 ng/ml; AS1517499 25 nM. Here is the method: T cell-mediated cytotoxicity was determined by Cytotox96 non-radioactive cytotoxicity assay kit (Promega, #G1780) based on the release of lactate dehydrogenase (LDH). After expansion and activation, mouse primary CD8^+ T cells or human JURKAT T cells were collected. About 10^5 T cells were co-cultured with SIM-A9 microglia or PrhMG (1:1 ratio) treated with TFPI2 recombinant protein in the presence or absence of STAT6 inhibitor AS1517499 for 24 hrs. T cells (effector cells) were then collected for further co-culturing with CT2A cells or GSC272 cells (target cells) at different ratios (10000:1000, 5000:1000, 2500:1000, 1250:1000, 620:1000, 310:1000, 160:1000, 80:1000, 40:1000, 20:1000) for 5 hrs. Experimental groups and corresponding control groups, including effector cell spontaneous LDH release, target cell spontaneous LDH release, target cell maximum LDH release, volume correction control, and culture medium background control were set up following the manufacturer's instructions to evaluate T cell-mediated cytotoxicity on GSCs. Optical density (OD) was measured by a Biotek Synergy 2 SL Microplate Reader. The cytotoxicity was calculated by the formula: (experimental OD value-effector spontaneous OD value-target spontaneous OD value)/(target maximum OD value-target spontaneous OD value).

In data set [2] the test system is JURKAT T cells cocultured with PrhMG. Nature of the data set: Human microglia-T cell co-culture, flow cytometry. The data set is classed as cell-based. The conditions noted are these: TFPI2 recombinant protein 20 ng/ml; AS1517499 25 nM. Here is the method:
For membrane protein staining, the single-cell suspensions were washed with PBS and then incubated with fixable viability dye (Invitrogen, #5211229035) on ice for 10 min. Following washing with PBS, cells were incubated with the anti-CD16/CD32 cocktail (BioLegend, #103132) in 2% BSA PBS to block Fc receptors for 30 min on ice. Different antibody combinations, including Percp/Cy5.5 anti-mouse CD45 (BioLegend, #103132), AF488 anti-mouse CD3 (BioLegend, #100210), BV421 anti-mouse CX3CR1 (BD Bioscience, #567531), BUV395 anti-mouse CD4 (BD Bioscience, #740208), BV711 anti-mouse CD8 (BioLegend, #100747), PE/Cy7 anti-mouse/human CD11b (BioLegend, #101216), PE anti-mouse CD68 (BD Bioscience, #566386), PE anti-mouse PD1 (BioLegend, #135205), AF647 anti-mouse CD206 (BD Bioscience, #565250), AF647 anti-human CD206 (BioLegend, #321116), PE anti-human CD69 (BioLegend, #310906), PE/Cy7 anti-mouse CD69 (BioLegend, #104512), and BV650 anti-human HLA-DR (BioLegend, #307650) were added to cell suspensions for 30 min on ice. […] Samples were read in BD FACSymphony flow cytometer and analyzed in FlowJo v10.8.1. […] Then cell suspensions were rewashed in permeabilization buffer and read in BD FACSymphony flow cytometer.

Data set [3] concerns STAT6. The data set can be described thus: Immunoblot and flow cytometry for P-STAT6 in microglia. It counts as cell-based, human and mouse. The conditions noted are these: TFPI2 recombinant protein, indicated concentrations and time points. Here is the method:
The protein expression in cells was determined by western blotting analysis (Ref. 61; incorporated by reference in its entirety). Cells were homogenized in RIPA lysis buffer containing phosphatase/protease cocktail inhibitors (Cell Signaling Technology, #5870). The protein concentration was determined by BCA Protein Assay Kit (Thermo Fisher Scientific, #P123225). Protein solution was mixed with the Leammli sample buffer and heated at 95° C. before loading to SurePAGE gels (GenScript, #M00653). The gels were run at a constant voltage of 80 V and then transferred to 0.2 μm nitrocellulose membrane (Bio-Rad, #1620112) using the Trans-Blot Turbo system (Bio-Rad) with a preprogrammed standard protocol for 30 min. Nitrocellulose membrane was incubated with 5% dry milk to block any unspecific staining. […]

Turning to `NC(=O)c1cnc(NCCc2ccc(O)c(Cl)c2)nc1NCc1ccccc1` [AS1517499], the “suppression of T cell-mediated tumor cell cytotoxicity by TFPI2-polarized microglia” value in data set [1] is given as “rescued”. In addition, the “suppression of JURKAT T cell viability and activation by TFPI2-polarized microglia” value in data set [2] is on record as “prevented”.

B1: TFPI2 recombinant protein (tissue factor pathway inhibitor 2; BioVision, #7481-10) (ligand, UniProt P48307 23-235, looked up)
chain: DAAQEPTGNNAEICLLPLDYGPCRALLLRYYYDRYTQSCRQFLYGGCEGNANNFYTWEACDDACWRIEKVPKVCRLQVSVDDQCEGSTEKYFFNLSSMTCEKFFSGGCHRNRIENRFPDEATCMGFCAPKKIPSFCYSPKDEGLCSANVTRYYFNPRYRTCDAFTYTGCGGNDNNFVSREDCKRACAKALKKKKKMPKLRFASRIRKIRKKQF
notes: Bought recombinant protein added to microglia at 20 ng/ml; also called recombinant TFPI2; secreted TFPI2
In the case of B1, in data set [3], the “phosphorylation of STAT6 in human and mouse microglia” value is recorded as “increased”.
